Laboratory results: PubChem BioAssay AID330 (DTP/NCI, 2004)
Values joined by “and” are separate entries in the source; they are usually repeats but may differ in a detail not shown here. Identical values can stand only once. Toxic doses and inconclusive results are not listed.

Test system: P388 leukemia ip, CD2F1 mice, survival T/C
Test: NCI In Vivo Anticancer Drug Screen. Data for tumor model P388 Leukemia (intraperitoneal) in CD2F1 (CDF1) mice
Settings: endpoint: median survival time, higher = longer survival
Outline: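 Mice carrying the transplanted tumor received test compound or vehicle. Survival was recorded in each group, and the value is the treated-group measurement divided by that of the vehicle-treated control group.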

**Q.** What does the source list for O=C1N[C@@H]([C@H]2CC[C@H](Cl)CN2)C(=O)N[C@H]1[C@H]1CC[C@H](Cl)CN1?
**A.** T/C (dose: 0.25 mg/kg/injection, schedule: Q01DX005 (iv), vehicle: saline): 118 % of control; T/C (dose: 0.39 mg/kg/injection, schedule: Q01DX009 (ip), vehicle: water): 158 % of control and 182 % of control; T/C (dose: 0.5 mg/kg/injection, schedule: Q01DX005 (iv), vehicle: saline): 118 % of control; T/C (dose: 0.78 mg/kg/injection, schedule: Q01DX009 (ip), vehicle: water): 184 % of control and 214 % of control; T/C (dose: 1.0 mg/kg/injection, schedule: Q01DX001 (ip), vehicle: saline): 123 % of control; T/C (dose: 1.0 mg/kg/injection, schedule: Q01DX005 (ip), vehicle: saline): 181 % of control; T/C (dose: 1.0 mg/kg/injection, schedule: Q01DX005 (iv), vehicle: saline): 120 % of control; T/C (dose: 1.56 mg/kg/injection, schedule: Q01DX009 (ip), vehicle: water): 122 % of control and 223 % of control; T/C (dose: 2.0 mg/kg/injection, schedule: Q01DX001 (ip), vehicle: saline): 123 % of control; T/C (dose: 2.0 mg/kg/injection, schedule: Q01DX005 (ip), vehicle: saline): 227 % of control; T/C (dose: 2.0 mg/kg/injection, schedule: Q01DX005 (iv), vehicle: saline): 157 % of control; T/C (dose: 2.0 mg/kg/injection, schedule: Q01DX005 (oral), vehicle: saline): 180 % of control; T/C (dose: 4.0 mg/kg/injection, schedule: Q01DX001 (ip), vehicle: saline): 151 % of control; T/C (dose: 4.0 mg/kg/injection, schedule: Q01DX005 (ip), vehicle: saline): 100 % of control; T/C (dose: 4.0 mg/kg/injection, schedule: Q01DX005 (iv), vehicle: saline): 200 % of control; T/C (dose: 4.4 mg/kg/injection, schedule: Q01DX001 (ip), vehicle: saline): 172 % of control and 176 % of control and 177 % of control; T/C (dose: 6.7 mg/kg/injection, schedule: Q01DX001 (ip), vehicle: saline): 172 % of control and 190 % of control and 211 % of control; T/C (dose: 10.0 mg/kg/injection, schedule: Q01DX001 (ip), vehicle: saline): 216 % of control and 220 % of control and 250 % of control; T/C (dose: 16.0 mg/kg/injection, schedule: Q01DX001 (ip), vehicle: saline): 209 % of control

**Q.** CCOC(=O)NC(NC(=O)OCC)c1ccc(OC)cc1 was tested. Which T/C (dose: 100.0 mg/kg/injection, schedule: Q04DX003 (ip), vehicle: saline) did it give?
**A.** The T/C was 100 % of control.

**Q.** What about the T/C (dose: 200.0 mg/kg/injection, schedule: Q04DX003 (ip), vehicle: saline) of the same compound?
**A.** Its T/C is 91 % of control.

**Q.** And the T/C (dose: 400.0 mg/kg/injection, schedule: Q04DX003 (ip), vehicle: saline)?
**A.** The T/C was 94 % of control.

**Q.** Which results are given for CCOC(=O)CCC(=O)Oc1cccc2c1C(=O)c1c(OC(=O)CCC(=O)OCC)cccc1C2=O?
**A.** T/C (dose: 60.0 mg/kg/injection, schedule: Q01DX005 (ip), vehicle: Klucel (hydroxypropylcellulose) (HPC)): 91 % of control; T/C (dose: 120.0 mg/kg/injection, schedule: Q01DX005 (ip), vehicle: Klucel (hydroxypropylcellulose) (HPC)): 97 % of control; T/C (dose: 240.0 mg/kg/injection, schedule: Q01DX005 (ip), vehicle: Klucel (hydroxypropylcellulose) (HPC)): 91 % of control

**Q.** Which results are given for CCOC(=O)C(N)CSC (stereo not drawn)?
**A.** T/C (dose: 50.0 mg/kg/injection, schedule: Q01DX009 (ip), vehicle: water): 97 % of control; T/C (dose: 200.0 mg/kg/injection, schedule: Q01DX009 (ip), vehicle: water): 103 % of control; T/C (dose: 400.0 mg/kg/injection, schedule: Q01DX009 (ip), vehicle: water): 106 % of control

**Q.** Which T/C (dose: 50.0 mg/kg/injection, schedule: Q01DX009 (ip), vehicle: saline) does the source give for CCN(CC)c1ccc(/C=C(\C#N)C(N)=S)cc1 here?
**A.** Its T/C is 89 % of control.

**Q.** What about the T/C (dose: 100.0 mg/kg/injection, schedule: Q01DX009 (ip), vehicle: saline) of the same compound?
**A.** Its T/C is 101 % of control.

**Q.** What about the T/C (dose: 200.0 mg/kg/injection, schedule: Q01DX009 (ip), vehicle: saline) of the same compound?
**A.** The T/C was 105 % of control.

**Q.** O=C(Nc1ccc(N=Nc2ccc(S(=O)(=O)O)cc2)cc1)c1ccc(N=Nc2c(S(=O)(=O)O)cc(O)c3c(NC(=O)c4ccccc4)cc(S(=O)(=O)O)cc23)cc1 was tested. Which T/C (dose: 50.0 mg/kg/injection, schedule: Q01DX005 (ip), vehicle: saline with Tween-80) did it give?
**A.** The T/C was 95 % of control.

**Q.** And the T/C (dose: 100.0 mg/kg/injection, schedule: Q01DX005 (ip), vehicle: saline with Tween-80)?
**A.** Its T/C is 93 % of control.

**Q.** What about the T/C (dose: 200.0 mg/kg/injection, schedule: Q01DX005 (ip), vehicle: saline with Tween-80) of the same compound?
**A.** The T/C was 95 % of control.

**Q.** Which results are given for COc1ccc2c(C)c[nH]c2c1?
**A.** T/C (dose: 100.0 mg/kg/injection, schedule: Q01DX001 (ip), vehicle: saline with Tween-80): 100 % of control; T/C (dose: 200.0 mg/kg/injection, schedule: Q01DX001 (ip), vehicle: saline with Tween-80): 118 % of control; T/C (dose: 400.0 mg/kg/injection, schedule: Q01DX001 (ip), vehicle: saline with Tween-80): 100 % of control

**Q.** With CCOC(=O)C1=C(C)N[C@@H](c2ccccc2[N+](=O)[O-])N[C@H]1c1ccccc1[N+](=O)[O-] as the compound, how does the T/C (dose: 50.0 mg/kg/injection, schedule: Q01DX005 (ip), vehicle: Klucel (hydroxypropylcellulose) (HPC)) read?
**A.** The T/C was 101 % of control.

**Q.** What about the T/C (dose: 100.0 mg/kg/injection, schedule: Q01DX005 (ip), vehicle: Klucel (hydroxypropylcellulose) (HPC)) of the same compound?
**A.** Its T/C is 101 % of control.

**Q.** And the T/C (dose: 200.0 mg/kg/injection, schedule: Q01DX005 (ip), vehicle: Klucel (hydroxypropylcellulose) (HPC))?
**A.** Its T/C is 92 % of control.

**Q.** What does the source list for CCCCCCCC/C=C\CCCCCCCC(=O)OCCCCCCCCCCCCCCCCC?
**A.** T/C (dose: 100.0 mg/kg/injection, schedule: Q01DX009 (ip), vehicle: saline with Tween-80): 100 % of control; T/C (dose: 200.0 mg/kg/injection, schedule: Q01DX009 (ip), vehicle: saline with Tween-80): 100 % of control; T/C (dose: 400.0 mg/kg/injection, schedule: Q01DX009 (ip), vehicle: saline with Tween-80): 96 % of control
